{"source": "patent US11130733B2", "about": "“4-OXO-alkylated tetramic acid compound, preparation method and use thereof” (BEIJING JOEKAI BIOTECH. LLC, priority 2017, dated 2021)", "key": {"[1]": {"tested_on": "Drosophilae containing and expressing human Abeta42 gene", "assay": "Pavlov's olfactory-related instantaneous memory test in Drosophila", "type": "in vivo", "conditions": "test medicament 100 μM, 50 μL per 100 drosophilae, 7 consecutive days; FIG. 1 and FIG. 2", "source_text": "Drosophila has a classical learning and memory paradigm, known as Pavlov's olfactory-related instantaneous memory. During the training program, a group of about 100 drosophilae were exposed sequentially to two odors, i.e., 3-octanol and 4-methylcyclohexanol, each odor for 60 seconds, and to fresh air for 45 seconds therebetween. During exposure to the first odor, the drosophilae were electrocuted on their feet (1.5-second pulses at 3.5-second intervals, 60V), while no electrocution was exerted during exposure to the second odor. In order to detect “instantaneous memory” (also known as “learning”), drosophilae were transferred to the selection area in the T maze immediately after training and forced to choose between the two odors. The drosophilae in each T-maze arm were then captured, anesthetized, and counted. The behavior index was calculated from the distribution of drosophilae in the T maze. […] In each experiment, the age of the control group was matched with that of the experimental group.\nPharmacodynamic evaluation of the candidate compounds: Drosophilae containing and expressing human Abeta42 gene were selected as a diseased control, and drosophilae containing but not expressing human Abeta42 gene were selected as a healthy control. The day after emergence of the drosophilae, male drosophilae were selected and fed. Starting from the third day, drosophilae were fed with a test medicament (100 μM, 50 μL per 100 drosophilae) for 7 consecutive days, 4 hours each day. The above memory test was performed on the drosophilae on the tenth day."}, "[2]": {"tested_on": "Transgenic mice containing APP/PS1", "assay": "Water maze test of spatial memory in mice", "type": "in vivo", "procedure": "Transgenic mice containing APP/PS1 were purchased from the Jackson Laboratory of the USA. The transgenic mice were crossbred with B6/C3 background mice. Their offspring were self-bred, genotyped, and each fed in a separate cage for about 8 months. One week before the test, a prescribed dose of medicament was administered to the mice by gavage each day, and then the spatial memory of the mice was measured by water maze test. A water tank with a diameter of 1.5 meters was filled with water at a constant temperature of 25 degrees, and skim milk was added to render the water surface opaque. A transparent platform was placed in a specific quadrant of the water tank. Distant hints were provided as spatial reference. The mice were put into the water and allowed to swim until they found the platform under the surface of water. The whole process was tracked by software, and the time from launching to finding the platform, called a latent period, was recorded thereby. If a mouse could not find the platform within 60 seconds, it was manually guided to the platform and its latent period was recorded as 60 seconds. Four rounds of the above tests were carried out on each mouse every day, with a one-hour interval between every two rounds of tests for the mice to rest. The latent period of each mouse on a day was the average of the four rounds of tests on the same day."}, "[3]": {"tested_on": "Salmonella typhimurium TA100", "assay": "Mini Ames experiment, strain TA100", "type": "cell-based", "procedure": "Histidine auxotrophic strains of Salmonella typhimurium were cultured in a special medium with quite a low content of histidine. The strains were difficult to divide due to lack of nutrition. If a test compound has mutagenicity, a large number of cells will undergo reverse mutation, synthesizing histidine by themselves and developing into colonies visible to the naked eye. In view of the close relationship between mutagenicity and carcinogenesis of chemicals, this method has been widely used in screening carcinogens. Some chemicals need metabolic activation to induce mutagenicity. Mammalian microsomal enzyme S9 can be added into the test system to eliminate the influence of metabolic activation on generation of mutagenicity.\n[…] Mini Ames test with compound 50561"}, "[4]": {"conditions": "TA100, With Metabolic Activation, 1.5 μg per well"}, "[5]": {"conditions": "TA100, With Metabolic Activation, 4 μg per well"}, "[6]": {"conditions": "TA100, With Metabolic Activation, 10 μg per well"}, "[7]": {"conditions": "TA100, With Metabolic Activation, 25 μg per well"}, "[8]": {"conditions": "TA100, With Metabolic Activation, 64 μg per well"}, "[9]": {"conditions": "TA100, With Metabolic Activation, 160 μg per well"}, "[10]": {"conditions": "TA100, With Metabolic Activation, 400 μg per well"}, "[11]": {"conditions": "TA100, With Metabolic Activation, 1000 μg per well"}, "[12]": {"conditions": "TA100, Without Metabolic Activation, 1.5 μg per well"}, "[13]": {"conditions": "TA100, Without Metabolic Activation, 4 μg per well"}, "[14]": {"conditions": "TA100, Without Metabolic Activation, 10 μg per well"}, "[15]": {"conditions": "TA100, Without Metabolic Activation, 25 μg per well"}, "[16]": {"conditions": "TA100, Without Metabolic Activation, 64 μg per well"}, "[17]": {"conditions": "TA100, Without Metabolic Activation, 160 μg per well"}, "[18]": {"conditions": "TA100, Without Metabolic Activation, 400 μg per well"}, "[19]": {"conditions": "TA100, Without Metabolic Activation, 1000 μg per well"}}, "data": [{"smiles": "O=C1C=C(OCc2ccc(F)cc2)[C@H](Cc2ccccc2)N1", "note": "[Compound 50561]", "values": [{"measurement": "ability to improve the learning and memory of drosophilae", "setting": "[1]", "value": "best ability to improve the learning and memory of drosophilae"}, {"measurement": "ability to rescue the spatial memory of mice", "setting": "[2]; 0.1 mg/kg by gavage, FIG. 5", "value": "no ability to rescue the spatial memory of mice"}, {"measurement": "ability to rescue the spatial memory of mice", "setting": "[2]; 1 mg/kg by gavage, FIG. 5", "value": "no ability to rescue the spatial memory of mice"}, {"measurement": "ability to rescue the spatial memory of mice", "setting": "[2]; 10 mg/kg by gavage, FIG. 4", "value": "good ability to rescue the spatial memory of mice"}, {"measurement": "Mean Revertants Per Well", "setting": "[3]; [4]", "value": 25.33}, {"measurement": "Ratio Treated/Solvent", "setting": "[3]; [4]", "value": 0.78}, {"measurement": "Mean Revertants Per Well", "setting": "[3]; [5]", "value": 30.33}, {"measurement": "Ratio Treated/Solvent", "setting": "[3]; [5]", "value": 0.93}, {"measurement": "Mean Revertants Per Well", "setting": "[3]; [6]", "value": 32.33}, {"measurement": "Ratio Treated/Solvent", "setting": "[3]; [6]", "value": 0.99}, {"measurement": "Mean Revertants Per Well", "setting": "[3]; [7]", "value": 28.67}, {"measurement": "Ratio Treated/Solvent", "setting": "[3]; [7]", "value": 0.88}, {"measurement": "Mean Revertants Per Well", "setting": "[3]; [8]", "value": 31.00}, {"measurement": "Ratio Treated/Solvent", "setting": "[3]; [8]", "value": 0.95}, {"measurement": "Mean Revertants Per Well", "setting": "[3]; [9]", "value": 28.33}, {"measurement": "Ratio Treated/Solvent", "setting": "[3]; [9]", "value": 0.87}, {"measurement": "Mean Revertants Per Well", "setting": "[3]; [10]", "value": 0.00}, {"measurement": "Ratio Treated/Solvent", "setting": "[3]; [10]", "value": 0.00}, {"measurement": "Mean Revertants Per Well", "setting": "[3]; [11]", "value": 0.00}, {"measurement": "Ratio Treated/Solvent", "setting": "[3]; [11]", "value": 0.00}, {"measurement": "Mean Revertants Per Well", "setting": "[3]; [12]", "value": 25.67}, {"measurement": "Ratio Treated/Solvent", "setting": "[3]; [12]", "value": 1.04}, {"measurement": "Mean Revertants Per Well", "setting": "[3]; [13]", "value": 25.33}, {"measurement": "Ratio Treated/Solvent", "setting": "[3]; [13]", "value": 1.03}, {"measurement": "Mean Revertants Per Well", "setting": "[3]; [14]", "value": 28.67}, {"measurement": "Ratio Treated/Solvent", "setting": "[3]; [14]", "value": 1.16}, {"measurement": "Mean Revertants Per Well", "setting": "[3]; [15]", "value": 19.00}, {"measurement": "Ratio Treated/Solvent", "setting": "[3]; [15]", "value": 0.77}, {"measurement": "Mean Revertants Per Well", "setting": "[3]; [16]", "value": 23.33}, {"measurement": "Ratio Treated/Solvent", "setting": "[3]; [16]", "value": 0.95}, {"measurement": "Mean Revertants Per Well", "setting": "[3]; [17]", "value": 17.33}, {"measurement": "Ratio Treated/Solvent", "setting": "[3]; [17]", "value": 0.70}, {"measurement": "Mean Revertants Per Well", "setting": "[3]; [18]", "value": 0.00}, {"measurement": "Ratio Treated/Solvent", "setting": "[3]; [18]", "value": 0.00}, {"measurement": "Mean Revertants Per Well", "setting": "[3]; [19]", "value": 0.00}, {"measurement": "Ratio Treated/Solvent", "setting": "[3]; [19]", "value": 0.00}, {"measurement": "mutagenicity", "setting": "[3]; TA100, presence or absence of S9", "value": "no obvious mutagenicity"}]}]}
